pIC50: −log10 of the molar value. Read-outs that look alike come from different tables or passages of the source.
Columns and labels:
Type in all cases: cell-based
[1] = tested on: β-adrenergic receptor (β2), guinea-pig tracheal ring; assay: Guinea-pig tracheal ring (β2): inhibition of isoprenaline-induced relaxation; conditions: ratio of ED50 tracheal ring / ED50 right atrium; for β2/β1 (ratio of the ED50 values, tracheal ring to right atrium; index of cardioselectivity): Table I
Text: (§1) 2. GUINEA-PIG TRACHEAL RING (β2)
(§2) The trachea is dissected from guinea-pigs (400±50 g). Four rings, approximately 8 mm in width, are then cut from each trachea. Cartilaginous parts of the tracheal ring are mounted horizontally between two metal rods, one of which is attached to a glass organholder, the other rod being connected to a Grass isometric transducer. Using such a technique the tracheal smooth muscle is suspended optimally i.e. midway between the cartilaginous parts. the prepared rings are suspended in a 100 ml organ chamber filled with Tyrode solution, maintained at 35° C. and aerated with 95% O2 and 5% CO2. The preparation is maintained at tension of 1.5 g throughout the experiment. Tension changes recorded are thus an expression of contraction or relaxation. After a stabilization period of 30 min contraction is induced by adding methacholine (1 μg/ml) to the bath for a 10 min period. Addition of isoprenaline (0.08 μg/ml) for 4 min. in the presence of methacholine induces a relaxation of the tracheal ring. This procedure is repeated twice before adding the drug (t-33'; t-19') and once 30 min after addition of the drug. During the incubation period any direct effects of the drug are measured. A 50% inhibition of the agonist-induced response is used as the criterion of effectiveness and ED50 values (with fiducial limits) are determined by probit analysis.
(§3) The ratio of the ED50 -values obtained in respectively the tracheal ring test (β2) and in the right atrium test (β1) may be considered as an index of the cardioselectivity of the test drug.

[2] = target: T1, β-adrenergic receptor (β2), guinea-pig tracheal ring (Cavia porcellus, UniProt Q8K4Z4); assay: as above; conditions: guinea-pig tracheal ring, methacholine 1 μg/ml, isoprenaline 0.08 μg/ml, 35° C., read-out: β2 = ED50 tracheal ring (converted)
T1 construct: The trachea is dissected from guinea-pigs; from tissue; host or cells: guinea-pig tracheal smooth muscle (rings)
Text: as §1, §2, §3

[3] = target: T2, β-adrenergic receptor (β1), guinea-pig right atrium (Cavia porcellus, UniProt H0W3H1); assay: Guinea-pig right atrium (β1): inhibition of isoprenaline-induced increase in heart rate; conditions: isolated guinea-pig right atrium, drug incubation 30 min, 37.5° C.; for pIC50: Table I, ED50 estimated graphically
T2 construct: Spontaneously beating right atria are dissected from guinea-pigs; from tissue; host or cells: guinea-pig right atrium (strip with sinoatrial node)
Method: 1. GUINEA-PIG RIGHT ATRIUM (β1)
Spontaneously beating right atria are dissected from guinea-pigs (400±50 g). A triangular strip of atrium, including the sinoatrial node is excised together with the anterior vena cava.
The vena is fixed to a glass muscle holder and the opposite atrial muscle is connected to a Grass isometric transducer. Atria are suspended at optimal preload in a 100 ml Krebs-Henseleit solution, containing 2 g/l glucose, at 37.5° C. and aerated with 95% O2 and 5% CO2.
Heart rate and contractile force are recorded by means of a Grass FTO3C isometric transducer. Output signals amplified by an isometric transducer amplifier (J.S.I.) via a cardiotachometer (J.S.I.) are recorded on a Honeywell XYY' recorder. […] This produces a dose related increase in heart rate (a). After washing out isoprenaline a stabilization period of 15 min. is allowed. A drug is then added to the bath fluid for 30 min. During this incubation period possible direct chronotropic and inotropic effects of the drug are determined. Following this, a second dose-response curve for isoprenaline is produced by infusion during 10 minutes (b). The slope of the increase in rate is graphically estimated for each period of isoprenaline addition and the ratio b/a is calculated. Based on solvent experiments a ratio of less than 0.70 is considered as the criterion of inhibitory activity. ED50 -values are estimated graphically.

[4] = Table I, 30 min after drug, probit analysis

T2 sequence (H0W3H1 1-470): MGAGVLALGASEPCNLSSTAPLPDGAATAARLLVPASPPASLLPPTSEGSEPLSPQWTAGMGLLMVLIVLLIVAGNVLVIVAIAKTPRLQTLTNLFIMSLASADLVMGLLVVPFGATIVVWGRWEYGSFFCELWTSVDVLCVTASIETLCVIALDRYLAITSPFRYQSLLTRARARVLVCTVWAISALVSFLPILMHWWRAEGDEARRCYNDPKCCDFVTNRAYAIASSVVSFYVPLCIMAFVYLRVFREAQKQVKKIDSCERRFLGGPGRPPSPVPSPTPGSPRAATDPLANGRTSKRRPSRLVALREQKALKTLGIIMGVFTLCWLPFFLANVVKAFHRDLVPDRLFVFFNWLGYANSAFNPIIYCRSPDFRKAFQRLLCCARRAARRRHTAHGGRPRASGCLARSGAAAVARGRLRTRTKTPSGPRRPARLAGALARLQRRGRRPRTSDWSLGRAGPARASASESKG
T1 sequence (Q8K4Z4 whole entry): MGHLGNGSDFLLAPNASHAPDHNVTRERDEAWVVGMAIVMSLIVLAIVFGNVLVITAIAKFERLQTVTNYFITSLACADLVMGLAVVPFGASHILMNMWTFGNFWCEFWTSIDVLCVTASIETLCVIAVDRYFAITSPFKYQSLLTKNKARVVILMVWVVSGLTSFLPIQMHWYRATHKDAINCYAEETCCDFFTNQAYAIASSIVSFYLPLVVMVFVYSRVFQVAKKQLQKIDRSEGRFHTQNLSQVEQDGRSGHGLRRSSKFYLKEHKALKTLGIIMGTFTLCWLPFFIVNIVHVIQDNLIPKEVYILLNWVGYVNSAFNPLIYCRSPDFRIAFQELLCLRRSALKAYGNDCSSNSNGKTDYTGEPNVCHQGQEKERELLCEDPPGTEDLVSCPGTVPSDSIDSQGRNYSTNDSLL

| SMILES | IC50 [2, 4] [nM] | IC50 ([2]; Table II) [nM] | β2/β1 (ratio of the ED50 values, tracheal ring to right atrium; index of cardioselectivity) [1] | pIC50 [3] | β2/β1 (ratio of the ED50 values; index of cardioselectivity) ([1]; Table II) | IC50 ([3]; Table II, read-out: β1 = ED50 right atrium (converted)) [nM] |
| --- | --- | --- | --- | --- | --- | --- |
| C=CCOc1ccccc1OCC(O)CN1CCCC(Cn2c(=O)[nH]c3ccccc32)C1 (stereo not drawn) [2-(CH2CHCH2 O)C6 H4, H] | 45.7 |  | 16 | 8.54 |  |  |
| O=c1[nH]c2ccc(Cl)cc2n1CC1CCCN(CC(O)COc2cccc3ccccc23)C1 (stereo not drawn) [1-naphthalenyl, 6-Cl] | 343 |  | 32 | 7.97 |  |  |
| N#Cc1ccccc1OCC(O)CN1CCCC(Cn2c(=O)[nH]c3ccc(Cl)cc32)C1 (stereo not drawn) [2-CNC6 H4,6-Cl] | 181 |  | 16 | 7.95 |  |  |
| O=c1[nH]c2ccccc2n1CC1CCCN(CC(O)C2COc3ccccc3O2)C1 (stereo not drawn) [1-{1-[2-(2,3-dihydro-1,4-benzodioxin-2-yl)-2-hydroxyethyl]-3-piperidinylmethyl}-1,3-dihydro-2H-benzimidazol-2-one] |  | 48.8 |  |  | 4 | 12.2 |
| CCCOc1ccccc1OCC(O)CN1CCCC(Cn2c(=O)[nH]c3ccccc32)C1 (stereo not drawn) [2-(nC3 H7 O)C6 H4, H] | 22.8 |  | 4 | 8.25 |  |  |
| Cc1cc(OCC(O)CN2CCCC(Cn3c(=O)[nH]c4ccccc43)C2)cc(C)c1Cl (stereo not drawn) [3,5-(CH3)2-4-ClC6 H2, H] | 2820 |  | 500 | 8.25 |  |  |
| CCCCNC(=O)Nc1ccc(OCC(O)CN2CCCC(Cn3c(=O)[nH]c4ccccc43)C2)cc1 (stereo not drawn) [4-(nC4 H9NHCONH)C6 H4, H] | 161 |  | 8 | 7.70 |  |  |
| O=c1[nH]c2ccccc2n1CC1CCCN(CC(O)COc2cccc3ccccc23)C1 (stereo not drawn) [1-naphthalenyl, H] | 2900 |  | 125 | 7.64 |  |  |
| COc1ccccc1OCC(O)CN1CCCC(Cn2c(=O)[nH]c3ccc(Cl)cc32)C1 (stereo not drawn) [2-(CH3 O)C6 H4,6-Cl, 6-chloro-1,3-dihydro-1-{1-[2-hydroxy-3-(2-methoxyphenoxy)propyl]-3-piperidinylmethyl}-2H-benzimidazol-2-one] | 89.7 |  | 63 | 8.85 |  |  |
| Cc1cccc(OCC(O)CN2CCCC(Cn3c(=O)[nH]c4ccccc43)C2)c1C (stereo not drawn) [2,3-(CH3)2C6 H3, H] | 48.8 |  | 8 | 8.21 |  |  |
| C=CCc1ccccc1OCC(O)CN1CCCC(Cn2c(=O)[nH]c3ccccc32)C1 (stereo not drawn) [2-(CH2CHCH2)C6 H4, H] | 85.4 |  | 14 | 8.23 |  |  |
| CCOc1ccccc1OCC(O)CN1CCCC(Cn2c(=O)[nH]c3ccc(Cl)cc32)C1 (stereo not drawn) [2-(C2 H5 O)C6 H4,6-Cl] | 391 |  | 18 | 7.66 |  |  |
| CC(C)Oc1ccccc1OCC(O)CN1CCCC(Cn2c(=O)[nH]c3ccccc32)C1 (stereo not drawn) [2-(iC3 H7 O)C6 H4, H] | 91 |  | 8 | 7.94 |  |  |
| CC(=O)c1ccccc1OCC(O)CN1CCCC(Cn2c(=O)[nH]c3ccccc32)C1 (stereo not drawn) [2-(CH3 CO)C6 H4, H] | 2.95 |  | 1 | 8.53 |  |  |

Second part, led by results:

| IC50 [2, 4] [nM] | IC50 ([2]; Table II) [nM] | SMILES | β2/β1 (ratio of the ED50 values, tracheal ring to right atrium; index of cardioselectivity) [1] | pIC50 [3] | β2/β1 (ratio of the ED50 values; index of cardioselectivity) ([1]; Table II) | IC50 ([3]; Table II, read-out: β1 = ED50 right atrium (converted)) [nM] |
| --- | --- | --- | --- | --- | --- | --- |
| 12.2 |  | COc1ccccc1OCC(O)CN1CCCC(Cn2c(=O)[nH]c3ccccc32)C1 (stereo not drawn) [2-(CH3 O)C6 H4, H, 1,3-dihydro-1-{1-[2-hydroxy-3-(2-methoxyphenoxy)propyl]-3-piperidinylmethyl}-2H-benzimidazol-2-one] | 5 | 8.61 |  |  |
| 119 |  | O=c1[nH]c2ccccc2n1CC1CCCN(CC(O)COc2ccccc2Br)C1 (stereo not drawn) [2-BrC6 H4, H] | 22 | 8.27 |  |  |
| 2720 |  | O=c1[nH]c2ccccc2n1CC1CCCN(CC(O)COc2ccc(Br)cc2)C1 (stereo not drawn) [4-BrC6 H4, H] | 250 | 7.96 |  |  |
| 12.3 |  | N#Cc1ccccc1OCC(O)CN1CCCC(Cn2c(=O)[nH]c3ccccc32)C1 (stereo not drawn) [2-CNC6 H4, H] | 2 | 8.21 |  |  |
| 12.5 |  | O=c1[nH]c2cc(F)ccc2n1CC1CCCN(CC(O)COc2ccccc2)C1 (stereo not drawn) [C6 H5,5-F] | 4 | 8.50 |  |  |
| 410 |  | CC(=O)Nc1ccc(OCC(O)CN2CCCC(Cn3c(=O)[nH]c4ccccc43)C2)cc1 (stereo not drawn) [4-(CH3 CONH)C6 H4, H] | 72 | 8.24 |  |  |
| 1430 |  | CCCc1ccc(OCC(O)CN2CCCC(Cn3c(=O)[nH]c4cc(F)ccc43)C2)cc1 (stereo not drawn) [4-(nC3 H7)C6 H4,5-F] | 63 | 7.64 |  |  |
| 192 |  | O=c1[nH]c2cc(Cl)ccc2n1CC1CCCN(CC(O)COc2ccccc2)C1 (stereo not drawn) [C6 H5,5-Cl] | 16 | 7.92 |  |  |
| 769 |  | O=c1[nH]c2ccccc2n1CC1CCCN(CC(O)COc2ccc(Cl)cc2)C1 (stereo not drawn) [4-ClC6 H4, H] | 16 | 7.32 |  |  |
| 48.8 |  | CCc1ccccc1OCC(O)CN1CCCC(Cn2c(=O)[nH]c3ccccc32)C1 (stereo not drawn) [2-(C2 H5)C6 H4, H] | 8 | 8.21 |  |  |
| 46.8 |  | CSc1ccc(OCC(O)CN2CCCC(Cn3c(=O)[nH]c4ccccc43)C2)cc1 (stereo not drawn) [4-(CH3 S)C6 H4, H] | 32 | 8.83 |  |  |
| 50.6 |  | Cc1cccc(OCC(O)CN2CCCC(Cn3c(=O)[nH]c4ccccc43)C2)c1 (stereo not drawn) [3-(CH3)C6 H4, H] | 8 | 8.20 |  |  |
| 48.6 |  | COc1ccc(OCC(O)CN2CCCC(Cn3c(=O)[nH]c4ccccc43)C2)cc1 (stereo not drawn) [4-(CH3 O)C6 H4, H] | 2 | 7.61 |  |  |
| 184 |  | O=c1[nH]c2ccc(Cl)cc2n1CC1CCCN(CC(O)COc2ccc(F)cc2)C1 (stereo not drawn) [4-FC6 H4,6-Cl] | 16 | 7.94 |  |  |
| 23.5 |  | CCOc1ccccc1OCC(O)CN1CCCC(Cn2c(=O)[nH]c3ccccc32)C1 (stereo not drawn) [2-(C2 H5 O)C6 H4, H] | 4 | 8.23 |  |  |
| 25 |  | O=c1[nH]c2ccccc2n1CC1CCCN(CC(O)COc2ccc(F)cc2)C1 (stereo not drawn) [4-FC6 H4, H] | 8 | 8.50 |  |  |
| 23.3 |  | O=c1[nH]c2ccccc2n1CC1CCCN(CC(O)COc2ccccc2)C1 (stereo not drawn) [C6 H5, H] | 15 | 8.78 |  |  |
| 47.2 |  | CC(=O)c1ccc(OCC(O)CN2CCCC(Cn3c(=O)[nH]c4ccccc43)C2)cc1 (stereo not drawn) [4-(CH3 CO)C6 H4, H] | 8 | 8.23 |  |  |
| 714 |  | O=c1[nH]c2cc(Cl)ccc2n1CC1CCCN(CC(O)COc2ccc(F)cc2)C1 (stereo not drawn) [4-FC6 H4,5-Cl] | 62 | 7.94 |  |  |

Reference: US4181802A, “1-(Heterocyclylalkyl)-1,3-dihydro-2-H-benzimidazole-2-ones” (Janssen Pharmaceutica N.V., priority 1978, dated 1980)
